The results in this text go back to patent publication US10722496B2, “2-iminobiotin for use in the treatment of brain cell injury” (Neurophyxia B.V., priority 2015, dated 2020).

One experiment deals with IMR-32 cells. The experiment is described as follows: Reactive oxygen species (ROS) measurement, H2DCFDA. Format: cell-based, human. How it is done: In vitro hypoxia was induced in the cell cultures by using our recently described system with minor modifications (Huang et al., 2013b; Weber et al., 2015; Zitta et al., 2010). Enzyme stock solutions (100×) of catalase and glucose oxidase (both from Sigma-Aldrich) were prepared in cell culture medium (DMEM/F12, 1% FCS; final concentration: 120 U/ml and 2 U/ml respectively; Sigma-Aldrich) leading to a decrease of partial pressure of oxygen (pO2) below 10 mmHg within 5 minutes. Hypoxic conditions were confirmed by using a tissue oxygen pressure monitor (LICOX® CMP Oxygen Catheter; Integra, Plainsboro, USA). After 7 hours of hypoxia, the cells were washed twice with PBS (PAA) and fresh normoxic medium supplemented with solvent (citrate buffer 1%) or 2-IB (10, 30, 50, 100 and 300 ng/mL) was added to the cells. Investigations of cell damage, metabolic activity, ROS, hydrogen peroxide, nitrite/nitrate production, erkl/2, akt and stat5 phosphorylation as well as cell stress protein expression were performed with cell culture media or cell protein (FIG. 1).
For reactive oxygen species (ROS) measurements, 4×10^4 cells were seeded per well and cultured for 3 days in black walled 96-well plates (Greiner Bio-One, Frickenhausen, Germany). After hypoxia, cells were washed with pre-warmed PBS and cultured in a phenol red-free DMEM/F12 medium (Gibco®-invitrogen, NY, USA) with 1% fetal calf serum (PAA) for 17 hours, supplemented with solvent (citrate 1%) or 2-IB (10, 30, 50, 100, 300 ng/ml). Intracellular ROS were measured by adding 2′7′-dichlorodihydrofluorescein diacetate (H2DCFDA, Sigma-Aldrich) to a final concentration of 10 μM which is oxidized to fluorescent dichlorofluorescein (DCF) by intracellular ROS. DCF-loaded cells were kept in the dark at 37° C. and fluorescence was evaluated at an excitation wavelength of 485 nm and emission wavelength of 535 nm using an ELISA reader (Genios F L; Tecan, Crailsheim, Austria). Fluorescence data were acquired at time points 0 (T0) and 30 minutes (T30) and results were calculated as the increment of fluorescence (%) over time [(T30-T0)/T0×100]. Hydrogen peroxide was measured in the culture medium with a Quanti-Chrom™ Peroxide Assay Kit (Bio-Assay Systems, Hayward, USA), which utilizes the chromogenic Fe3+-xylenol orange reaction, in which a purple complex is formed when Fe2+ provided in the reagent is oxidized to Fe3+ by the hydrogen peroxide present in the sample. Briefly, 100 μl of detection reagent were added to 20 μl of culture medium and measurements were performed based on the manufacturer's protocol. Absorbance of the colorimetric samples and standards was measured at 620 nm using an ELISA reader (Tecan, Crailsheim, Germany).

For another experiment, the system named is 4VO rat model. The experiment is described as follows: Morris water maze after four-vessel occlusion (4VO). The experiment is classed as in vivo. As to conditions: for memory test, time spent in the right quadrant on day 32: 12 and 24 hours, mean±SD. How it is done: The rats were anesthetized using ketamine (90 mg/kg) and xylazine sodium ([…]), as described earlier (Meilin et al., 2014). The first cervical vertebrata was exposed and the vertebral arteries were permanently occluded by electrocauterization. The common carotid arteries were isolated through a ventral midline neck incision and lifted using a 4.0 silk suture ligature, placed around them.
Twenty-four hours post vertebral arterial occlusion, the animals were reanesthetized using isoflurane. The common carotid arteries were exposed and occluded using microaneurysm clips for 15 minutes. After removing the clips reperfusion occurred. The skin of the incision at the neck was sutured using 4-0 silk suture. During the operation animal's core temperature was monitored using a rectal probe (Model 400; YSI Inc., Yellow Springs, Ohio, USA) connected to a thermometer (Model 8402-00; Cole-Parmer Instrument Co. Ltd, London, UK). The ischemic insult was initiated when a rectal temperature of 37-38° C. was achieved, and this temperature was maintained throughout the procedure using a heating mattress.
During the acclimatization period rats were randomly assigned to experimental groups. The animals were subjected to 4VO per cage or one rat per cage was subjected to HI. Rats received either vehicle (normal saline at pH 3.8-4.0) or 2-IB (1.1 mg/kg, 3.3 mg/kg, 10 mg/kg and 30 mg/kg dissolved in 5 ml/kg normal saline at pH 3.8-4.0). Each dosing group was kept in separate cages to avoid cross-contamination by consuming stools during the study period. The experimental groups were as follows.
Tests were performed during day-time. Rats were introduced to a standardized 1.2 m-diameter pool filled with water for 120 seconds or until they located a platform hidden 1 cm below the water surface. Several visual cues were provided within the room in which the pool was located to allow rats to spatially navigate the water maze. […] Rats were allowed two attempts to find the hidden platform, and this learning test was performed over a period of 4 days (days 28-31). The memory test was performed on the fifth day (day 32), at which time the hidden platform was removed, and rats were placed in the pool for a single 60-second trial. The amount of time that each rat spent in the quadrant, where the hidden platform had previously been located, was recorded by an observer who was blinded to the experimental groups.
The Morris water maze was used to evaluate how well the rats remembered the location of the hidden platform, and whether they had learned to navigate towards the appropriate quadrant. The time that the rat spent in the right quadrant was measured. This was considered the primary outcome.
During the learning test the time to find a hidden platform in the water was calculated. Also the area under the curve (AUC) of the subsequent learning tests was calculated. These parameters were considered secondary outcomes.

Structures are written as SMILES.

In the case of `N=C1N[C@H]2[C@H](CS[C@H]2CCCCC(=O)O)N1` [2-IB, 2-iminobiotin], the “ROS increase (T30-T0)/T0×100” value in the experiment on IMR-32 cells (30 ng/ml 2-IB, hypoxia) is reported as 222.00±52.57%; with IMR-32 cells (30 ng/ml 2-IB, normoxia), 118.93±20.09%; in the experiment with IMR-32 cells (50 ng/ml 2-IB, hypoxia) it was 233.38±53.94%; in the experiment on IMR-32 cells (50 ng/ml 2-IB, normoxia), 154.85±30.83%; in the experiment with IMR-32 cells (100 ng/ml 2-IB, hypoxia), 246.71±58.94%; in the experiment on IMR-32 cells (100 ng/ml 2-IB, normoxia) it was 128.84±21.94%. Moreover, the “ROS increase (T30-T0)/T0×100” value in the experiment with IMR-32 cells (300 ng/ml 2-IB, hypoxia) is on record as 311.57±79.02%; in the experiment with IMR-32 cells (300 ng/ml 2-IB, normoxia), 141.20±25.35%. Moreover, the “hypoxia-induced generation of ROS, most efficient concentration” value in the experiment on IMR-32 cells (10-300 ng/ml tested) is recorded as “most efficiently attenuated with 50 ng/ml 2-IB”. Further, the “AUC of the learning test from day 28 until 31” value in the experiment on 4VO rat model (1.1 mg/kg/dose s.c.) is 276±85; in the experiment with 4VO rat model (3.3 mg/kg/dose s.c.), 266±64; in the experiment with 4VO rat model (10 mg/kg/dose s.c.), 297±79; in the experiment with 4VO rat model (30 mg/kg/dose s.c.) it was 287±89. Also, the “memory test, time spent in the right quadrant on day 32” value was found to be 10.7 ± 4.4 s in the experiment on 4VO rat model (1.1 mg/kg/dose s.c. upon reperfusion), 12.7 ± 6.7 s in the experiment with 4VO rat model (3.3 mg/kg/dose s.c. upon reperfusion), 12.0 ± 7.3 s with 4VO rat model (10 mg/kg/dose s.c. upon reperfusion) and 12.5 ± 6.0 s in the experiment with 4VO rat model (30 mg/kg/dose s.c. upon reperfusion). In addition, the “learning test day 28 to day 31, time to find the hidden platform vs vehicle-treated rats” value in the experiment on 4VO rat model (1.1 (p<0.05), 3.3 (p<0.01) and 30 mg/kg/dose (p<0.05), Dunnett's post hoc) is “significant difference”.
